Data: patent US20240041042A1, “1-(PYRIDYL)-5-AZINYLPYRAZOLE DERIVATIVES, AND THEIR USE FOR CONTROL OF UNDESIRED PLANT GROWTH” (Bayer Aktiengesellschaft, priority 2020, published 2024)
Like-named read-outs stand apart in the source and are kept apart here.

Key:
Assay type in all cases: in vivo
Avena fatua (AVEFA) [1] = experiment: Post-emergence herbicidal action against AVEFA; conditions: visual rating about 3 weeks after treatment
In short: (§1)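 Rates were 320 g/ha or below, applied as aqueous WP/EC spray with 0.5% additive (600 l/ha) onto one-leaf-stage plants. About 3 weeks later in the greenhouse, damage was scored visually against untreated plants on a 0–100% scale, where 100% means plants died.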

[2] = system: Matricaria inodora (MATIN); experiment: Pre-emergence herbicidal action against MATIN
In short: (§2)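 Dosages of 320 g/ha or less; pre-emergence; WP or EC in aqueous spray, 0.5% additive, 600 l/ha; greenhouse; visual % effect after ~3 wk relative to control pots.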

Lolium rigidum (LOLRI) [3] = experiment: Post-emergence herbicidal action against LOLRI
In short: as §1

[4] = system: Amaranthus retroflexus (AMARE); experiment: Pre-emergence herbicidal action against AMARE; conditions: visual scoring after about 3 weeks vs untreated controls
In short: as §2

[5] = system: Verconica persica (VERPE); experiment: Post-emergence herbicidal action against VERPE
In short: as §1

[6] = system: Alopecurus myosuroides (ALOMY); experiment: Pre-emergence herbicidal action against ALOMY; conditions: scored visually after about 3 weeks, 100% = plants have died
In short: as §2

Avena fatua (AVEFA) [7] = experiment: Pre-emergence herbicidal action against AVEFA; conditions: visual scoring after about 3 weeks vs untreated controls
In short: as §2

[8] = system: Polygonum convolvulus (POLCO); experiment: Pre-emergence herbicidal action against POLCO
In short: as §2

Setaria viridis (SETVI) [9] = experiment: Pre-emergence herbicidal action against SETVI
In short: as §2

Viola tricolor (VIOTR) [10] = experiment: Post-emergence herbicidal action against VIOTR
In short: as §1

[11] = system: Digitaria sanguinalis (DIGSA); experiment: Pre-emergence herbicidal action against DIGSA
Excerpt: Seeds of monocotyledonous and dicotyledonous weed plants and crop plants are placed in plastic or organic planting pots and covered with soil. The compounds of the invention, formulated in the form of wettable powders (WP) or as emulsion concentrates (EC), are then applied to the surface of the covering soil as aqueous suspension or emulsion with addition of 0.5% additive at a water application rate equivalent to 600 l/ha. After the treatment, the pots are placed in a greenhouse and kept under good growth conditions for the trial plants. After about 3 weeks, the effect of the preparations is scored visually in comparison with untreated controls as percentages. For example, 100% activity=the plants have died, 0% activity=like control plants.
Tables A1 to A13 below show the effects of selected compounds of the general formula (I) on various harmful plants and at an application rate corresponding to 320 g/ha or lower, which were obtained by the experimental procedure mentioned above. The appendices “a”, “b” and “c” give differentiation by dosage used with otherwise the same harmful plants tested.

Lolium rigidum (LOLRI) [12] = experiment: Pre-emergence herbicidal action against LOLRI
In short: as §2

[13] = system: Echinochloa crus-galli (ECHCG); experiment: Post-emergence herbicidal action against ECHCG
In short: as §1

[14] = system: Pharbitis purpurea (PHBPU); experiment: Pre-emergence herbicidal action against PHBPU; conditions: dosage 320 g/ha
In short: as §2

Viola tricolor (VIOTR) [15] = experiment: Pre-emergence herbicidal action against VIOTR
In short: as §2

[16] = system: Verconica persica (VERPE); experiment: Pre-emergence herbicidal action against VERPE
In short: as §2

[17] = system: Alopecurus myosuroides (ALOMY); experiment: Post-emergence herbicidal action against ALOMY; conditions: visual rating about 3 weeks after treatment vs untreated controls (100% = plants have died, 0% = like control plants)
In short: as §1

[18] = system: Digitaria sanguinalis (DIGSA); experiment: Post-emergence herbicidal action against DIGSA; conditions: visual rating about 3 weeks after treatment
In short: as §1

[19] = system: Matricaria inodora (MATIN); experiment: Post-emergence herbicidal action against MATIN
In short: as §1

[20] = system: Pharbitis purpurea (PHBPU); experiment: Post-emergence herbicidal action against PHBPU
In short: as §1

[21] = system: Echinochloa crus-galli (ECHCG); experiment: Pre-emergence herbicidal action against ECHCG
In short: as §2

Setaria viridis (SETVI) [22] = experiment: Post-emergence herbicidal action against SETVI
In short: as §1

Oryza sativa (ORYSA) = conditions: crop plant compatibility
In short: (§3)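 One-leaf-stage crops (2–3 wk post-sowing, sandy loam, greenhouse) sprayed on green parts; 0.5% additive, 600 l/ha water. Rated by eye ~3 wk later, % vs untreated; suffixes a/b/c mark different dosages.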

Zea mays (ZEAMX) = system: Zea mays (ZEAMX)
In short: as §3

[23] = 80 g/ha, visual scoring after about 3 weeks vs untreated controls

O=C(O)COc1nn(-c2nc(F)ccc2F)c(-c2cncc(F)c2)c1C1CC1 [Example I-148]
Post-emergence action against AVEFA in % (Avena fatua (AVEFA) [1]; 320 g/ha): 80%
Pre-emergence action against MATIN in % ([2]; dosage 80 g/ha): 90%
Pre-emergence action against MATIN in % ([2]; dosage 320 g/ha): 90%
Post-emergence action against LOLRI in % (Lolium rigidum (LOLRI) [3]; dosage 80 g/ha): 80%
Post-emergence action against LOLRI in % (Lolium rigidum (LOLRI) [3]; dosage 320 g/ha): 80%
Pre-emergence action against AMARE in % ([4]; 80 g/ha): 100%
Pre-emergence action against AMARE in % ([4]; 320 g/ha): 100%
Post-emergence action against VERPE in % ([5]; 320 g/ha, VERPE): 80%
Post-emergence action against VERPE in % ([5]; dosage 80 g/ha): 80%
Pre-emergence action against ALOMY ([6]; 80 g/ha): 100%
Pre-emergence action against ALOMY ([6]; 320 g/ha): 100%
Pre-emergence action against AVEFA in % (Avena fatua (AVEFA) [7]; 80 g/ha): 80%
Pre-emergence action against AVEFA in % (Avena fatua (AVEFA) [7]; 320 g/ha): 90%
Pre-emergence action against POLCO in % ([8]; dosage 80 g/ha): 80%
Pre-emergence action against POLCO in % ([8]; dosage 320 g/ha): 90%
Pre-emergence action against SETVI in % (Setaria viridis (SETVI) [9]; dosage 80 g/ha): 90%
Pre-emergence action against SETVI in % (Setaria viridis (SETVI) [9]; dosage 320 g/ha): 100%
Post-emergence action against VIOTR in % (Viola tricolor (VIOTR) [10]; 80 g/ha): 80%
Post-emergence action against VIOTR in % (Viola tricolor (VIOTR) [10]; 320 g/ha): 80%
Pre-emergence action against DIGSA in % [11, 23]: 90%
Pre-emergence action against DIGSA in % ([11]; dosage 320 g/ha): 100%
Pre-emergence action against LOLRI in % (Lolium rigidum (LOLRI) [12]; dosage 80 g/ha): 90%
Pre-emergence action against LOLRI in % (Lolium rigidum (LOLRI) [12]; dosage 320 g/ha): 100%
Post-emergence action against ECHCG in % ([13]; dosage 80 g/ha): 80%
Post-emergence action against ECHCG in % ([13]; dosage 320 g/ha): 80%
Pre-emergence action against PHBPU in % [14]: 90%
Pre-emergence action against VIOTR in % (Viola tricolor (VIOTR) [15]; 320 g/ha, Viola tricolor): 100%
Pre-emergence action against VIOTR in % (Viola tricolor (VIOTR) [15]; dosage 80 g/ha): 100%
Pre-emergence action against VERPE in % ([16]; dosage 80 g/ha): 90%
Pre-emergence action against VERPE in % ([16]; dosage 320 g/ha): 100%
Post-emergence action against ALOMY in % ([17]; 80 g/ha): 80%
Post-emergence action against ALOMY in % ([17]; 320 g/ha): 90%
Post-emergence action against DIGSA in % ([18]; 80 g/ha): 80%
Post-emergence action against DIGSA in % ([18]; 320 g/ha): 90%
Post-emergence action against MATIN in % ([19]; dosage 80 g/ha): 80%
Post-emergence action against MATIN in % ([19]; dosage 320 g/ha): 80%
Post-emergence action against PHBPU in % ([20]; dosage 80 g/ha): 80%
Post-emergence action against PHBPU in % ([20]; dosage 320 g/ha): 90%
Pre-emergence action against ECHCG in % ([21]; dosage 80 g/ha): 90%
Pre-emergence action against ECHCG in % ([21]; dosage 320 g/ha): 100%
Post-emergence action against SETVI in % (Setaria viridis (SETVI) [22]; dosage 80 g/ha): 80%
Post-emergence action against SETVI in % (Setaria viridis (SETVI) [22]; dosage 320 g/ha): 80%

COCCOC(=O)COc1nn(-c2ncccc2F)c(-c2ccc(F)nc2)c1Br [Example I-29]
Post-emergence action against AVEFA in % (Avena fatua (AVEFA) [1]; 80 g/ha): 80%
Pre-emergence action against MATIN in % ([2]; dosage 320 g/ha): 100%
Post-emergence action against ORYSA in % (Oryza sativa (ORYSA); 20 g/ha, effect vs untreated controls): 10%
Post-emergence action against ORYSA in % (Oryza sativa (ORYSA); 80 g/ha, effect in comparison to untreated controls): 20%
Post-emergence action against ZEAMX in % (crop plant compatibility) (Zea mays (ZEAMX); 20 g/ha, ZEAMX, effect in comparison to untreated controls): 10%
Post-emergence action against ZEAMX in % (Zea mays (ZEAMX); crop plant compatibility, 80 g/ha, effect vs untreated controls): 20%
Pre-emergence action against AMARE in % ([4]; 80 g/ha): 90%
Pre-emergence action against AMARE in % ([4]; 320 g/ha): 100%
Post-emergence action against VERPE in % ([5]; dosage 80 g/ha): 80%
Pre-emergence action against ALOMY ([6]; 80 g/ha): 90%
Pre-emergence action against ALOMY ([6]; 320 g/ha): 100%
Pre-emergence action against AVEFA in % (Avena fatua (AVEFA) [7]; 320 g/ha): 90%
Pre-emergence action against POLCO in % ([8]; dosage 320 g/ha): 90%
Pre-emergence action against SETVI in % (Setaria viridis (SETVI) [9]; dosage 80 g/ha): 90%
Pre-emergence action against SETVI in % (Setaria viridis (SETVI) [9]; dosage 320 g/ha): 100%
Pre-emergence action against DIGSA in % [11, 23]: 100%
Pre-emergence action against DIGSA in % ([11]; dosage 320 g/ha): 100%
Pre-emergence action against LOLRI in % (Lolium rigidum (LOLRI) [12]; dosage 320 g/ha): 100%
Post-emergence action against ECHCG in % ([13]; dosage 80 g/ha): 80%
Pre-emergence action against VIOTR in % (Viola tricolor (VIOTR) [15]; 320 g/ha, Viola tricolor): 100%
Pre-emergence action against VIOTR in % (Viola tricolor (VIOTR) [15]; dosage 80 g/ha): 90%
Pre-emergence action against VERPE in % ([16]; dosage 320 g/ha): 90%
Post-emergence action against ALOMY in % ([17]; 80 g/ha): 100%
Post-emergence action against DIGSA in % ([18]; 80 g/ha): 90%
Post-emergence action against MATIN in % ([19]; dosage 80 g/ha): 90%
Pre-emergence action against ECHCG in % ([21]; dosage 320 g/ha): 100%
Post-emergence action against SETVI in % (Setaria viridis (SETVI) [22]; dosage 80 g/ha): 80%
